A short description of this data set: head-to-tail macrolactamisation of side-chain-protected linear peptides (crude from 2-ClTrt resin, TFE cleavage); DEPBT (2-2.5 equiv), NEt3 (10-12 equiv), 24 h; AcOH quench, prep HPLC. The note with it: from CC(C)C[C@H](NC(=O)[C@@H]1CCCN1C(=O)[C@H](CC(=O)NC(c1ccccc1)(c1ccccc1)c1ccccc1)NC(=O)[C@H](CC(C)C)NC(=O)[C@@H]1CCCN1C(=O)[C@H](CCC(=O)OC(C)(C)C)NC(=O)[C@@H](N)CC(C)C)C(=O)N[C@@H](CSC(c1ccccc1)(c1ccccc1)c1ccccc1)C(=O)O; 24-membered ring; MeCN with <1-10% DMSO (3i: 5% DMF in MeCN); 2.0 mM; 25.0 °C; 24.0 h.

The results in this text go back to publication PMC9286623.

Molecules are shown by their SMILES.

Take `CC(C)C[C@@H]1NC(=O)[C@H](CSC(c2ccccc2)(c2ccccc2)c2ccccc2)NC(=O)[C@H](CC(C)C)NC(=O)[C@@H]2CCCN2C(=O)[C@H](CC(=O)NC(c2ccccc2)(c2ccccc2)c2ccccc2)NC(=O)[C@H](CC(C)C)NC(=O)[C@@H]2CCCN2C(=O)[C@H](CCC(=O)OC(C)(C)C)NC1=O` [H-Leu-Glu(OtBu)-Pro-Leu-Asn(Trt)-Pro-Leu-Cys(Trt)-OH]: the ring closure, isolated yield came out at 23%.
